Measurements from PubChem BioAssay (NCI).
“And” between values parts separate entries of the source, which are not always exact repeats. Equal entries are not always repeated.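 1) Cells in 96-well plates. 2) Compound, 48 h, 5 concentrations. 3) Linear interpolation between surrounding doses. 4) Unreached endpoint = highest concentration. GI50 = concentration required for 50% inhibition of growth. TGI: concentration producing complete growth inhibition.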

Experiments:
Experiment in all cases: growth of human tumour cells (NCI), 48 h; in the data active means GI50 below about 0.43 µM; inactive means the rest
COLO 205 colon = tested on: COLO 205 colon
786-0 renal = tested on: 786-0 renal
A498 renal = tested on: A498 renal
A549 NSCLC = tested on: A549 NSCLC
ACHN renal = tested on: ACHN renal
BT-549 breast = tested on: BT-549 breast
CCRF-CEM leukemia = tested on: CCRF-CEM leukemia
DU-145 prostate = tested on: DU-145 prostate
EKVX NSCLC = tested on: EKVX NSCLC
HCC-2998 colon = tested on: HCC-2998 colon
HCT-116 colon = tested on: HCT-116 colon
HCT-15 colon = tested on: HCT-15 colon
HL-60(TB) leukemia = tested on: HL-60(TB) leukemia
HOP-62 NSCLC = tested on: HOP-62 NSCLC
HT29 colon = tested on: HT29 colon
IGROV1 ovarian = tested on: IGROV1 ovarian
K-562 leukemia = tested on: K-562 leukemia
KM12 colon = tested on: KM12 colon
LOX IMVI melanoma = tested on: LOX IMVI melanoma
M14 melanoma = tested on: M14 melanoma
MALME-3M melanoma = tested on: MALME-3M melanoma
MCF7 breast = tested on: MCF7 breast
MDA-MB-231 breast = tested on: MDA-MB-231 breast
MDA-MB-435 = tested on: MDA-MB-435
MOLT-4 leukemia = tested on: MOLT-4 leukemia
NCI-H226 lung = tested on: NCI-H226 lung
NCI-H23 lung = tested on: NCI-H23 lung
NCI-H460 lung = tested on: NCI-H460 lung
NCI-H522 lung = tested on: NCI-H522 lung
NCI/ADR-RES ovarian = tested on: NCI/ADR-RES ovarian
OVCAR-3 ovarian = tested on: OVCAR-3 ovarian
OVCAR-4 ovarian = tested on: OVCAR-4 ovarian
OVCAR-5 ovarian = tested on: OVCAR-5 ovarian
OVCAR-8 ovarian = tested on: OVCAR-8 ovarian
PC-3 prostate = tested on: PC-3 prostate
RPMI-8226 leukemia = tested on: RPMI-8226 leukemia
RXF 393 renal = tested on: RXF 393 renal
SF-268 CNS = tested on: SF-268 CNS
SF-295 CNS = tested on: SF-295 CNS
SF-539 CNS = tested on: SF-539 CNS
SK-MEL-2 melanoma = tested on: SK-MEL-2 melanoma
SK-MEL-28 melanoma = tested on: SK-MEL-28 melanoma
SK-MEL-5 melanoma = tested on: SK-MEL-5 melanoma
SK-OV-3 ovarian = tested on: SK-OV-3 ovarian
SN12C renal = tested on: SN12C renal
SNB-19 CNS = tested on: SNB-19 CNS
SNB-75 CNS = tested on: SNB-75 CNS
SR leukemia = tested on: SR leukemia
SW-620 colon = tested on: SW-620 colon
T-47D breast = tested on: T-47D breast
TK-10 renal = tested on: TK-10 renal
U251 CNS = tested on: U251 CNS
UACC-257 melanoma = tested on: UACC-257 melanoma
UACC-62 melanoma = tested on: UACC-62 melanoma
UO-31 renal = tested on: UO-31 renal
CAKI-1 renal = tested on: CAKI-1 renal

O=C1NC2C(CC(O)C(O)C2O)c2cc3c(c(O)c21)OCO3 (stereo not drawn)
active: GI50 (COLO 205 colon) 0.0255 µM and < 0.01 µM
0.127 µM and 0.0156 µM: TGI (COLO 205 colon)

CCCCCCCCNc1cc2c3c(c1)CCCN3CCC2
8.53 µM: TGI (MALME-3M melanoma)
11.1 µM: TGI (HT29 colon)
13 µM: TGI (MCF7 breast)
17 µM: TGI (SF-539 CNS)
19.4 µM: TGI (SNB-19 CNS)
10.6 µM: TGI (KM12 colon)
8.3 µM: TGI (IGROV1 ovarian)
17.7 µM: TGI (ACHN renal) | TGI (UO-31 renal)
12.7 µM: TGI (SK-MEL-2 melanoma)
19.3 µM: TGI (A549 NSCLC)
7.96 µM: TGI (SK-OV-3 ovarian)
6.47 µM: TGI (NCI-H522 lung)
13.6 µM: TGI (M14 melanoma)
38.5 µM: TGI (HCT-15 colon)
18.3 µM: TGI (HOP-62 NSCLC)
26.8 µM: TGI (HCC-2998 colon)
7.92 µM: TGI (HCT-116 colon)
11.7 µM: TGI (MDA-MB-231 breast) | TGI (MDA-MB-435)
active: GI50 (HL-60(TB) leukemia) 0.33 µM | GI50 (U251 CNS) 0.39 µM
5.81 µM: TGI (OVCAR-3 ovarian)
4.76 µM: TGI (COLO 205 colon)
1.85 µM: TGI (HL-60(TB) leukemia)
20.3 µM: TGI (OVCAR-8 ovarian)
15.3 µM: TGI (EKVX NSCLC)
17.9 µM: TGI (RXF 393 renal)
13.7 µM: TGI (786-0 renal)
9.18 µM: TGI (NCI-H460 lung)
12.3 µM: TGI (BT-549 breast)
inactive: GI50 (786-0 renal) 3.31 µM | GI50 (A498 renal) 4.2 µM | GI50 (A549 NSCLC) 4.26 µM | GI50 (ACHN renal) 3.22 µM | GI50 (BT-549 breast) 2.28 µM | GI50 (CCRF-CEM leukemia) 1.63 µM | GI50 (COLO 205 colon) 1.87 µM | GI50 (DU-145 prostate) 2.61 µM | GI50 (EKVX NSCLC) 0.559 µM | GI50 (HCC-2998 colon) 5.41 µM | GI50 (HCT-116 colon) 1.11 µM | GI50 (HCT-15 colon) 10.5 µM | GI50 (HOP-62 NSCLC) 4.04 µM | GI50 (HT29 colon) 0.774 µM | GI50 (IGROV1 ovarian) 1.77 µM | GI50 (K-562 leukemia) 0.433 µM | GI50 (KM12 colon) 1.63 µM | GI50 (LOX IMVI melanoma) 1.57 µM | GI50 (M14 melanoma) 2.5 µM | GI50 (MALME-3M melanoma) 2.05 µM | GI50 (MCF7 breast) 2.98 µM | GI50 (MDA-MB-231 breast) 2.56 µM | GI50 (MDA-MB-435) 0.951 µM | GI50 (MOLT-4 leukemia) 1.09 µM | GI50 (NCI-H226 lung) 2.46 µM | GI50 (NCI-H23 lung) 1.79 µM | GI50 (NCI-H460 lung) 2.66 µM | GI50 (NCI-H522 lung) 0.594 µM | GI50 (NCI/ADR-RES ovarian) 19.7 µM | GI50 (OVCAR-3 ovarian) 1.55 µM | GI50 (OVCAR-4 ovarian) 1.94 µM | GI50 (OVCAR-5 ovarian) 3.88 µM | GI50 (OVCAR-8 ovarian) 1.87 µM | GI50 (PC-3 prostate) 0.926 µM | GI50 (RPMI-8226 leukemia) 5.55 µM | GI50 (RXF 393 renal) 4.07 µM | GI50 (SF-268 CNS) 2.04 µM | GI50 (SF-295 CNS) 2.31 µM | GI50 (SF-539 CNS) 2.81 µM | GI50 (SK-MEL-2 melanoma) 3.06 µM | GI50 (SK-MEL-28 melanoma) 3.87 µM | GI50 (SK-MEL-5 melanoma) 1.49 µM | GI50 (SK-OV-3 ovarian) 2.36 µM | GI50 (SN12C renal) 2.56 µM | GI50 (SNB-19 CNS) 3.29 µM | GI50 (SNB-75 CNS) 1.47 µM | GI50 (SR leukemia) 0.551 µM | GI50 (SW-620 colon) 2.14 µM | GI50 (T-47D breast) 1.34 µM | GI50 (TK-10 renal) 5.69 µM | GI50 (UACC-257 melanoma) 1.03 µM | GI50 (UACC-62 melanoma) 2.16 µM | GI50 (UO-31 renal) 3.17 µM
21 µM: TGI (T-47D breast)
12 µM: TGI (OVCAR-4 ovarian)
12.8 µM: TGI (DU-145 prostate) | TGI (PC-3 prostate) | TGI (SF-268 CNS)
17.8 µM: TGI (SK-MEL-28 melanoma)
13.3 µM: TGI (SW-620 colon)
22 µM: TGI (TK-10 renal)
14.7 µM: TGI (SN12C renal)
16.4 µM: TGI (NCI-H226 lung) | TGI (UACC-62 melanoma)
15.1 µM: TGI (U251 CNS)
10.8 µM: TGI (SF-295 CNS) | TGI (SNB-75 CNS)
28.5 µM: TGI (LOX IMVI melanoma)
18.1 µM: TGI (NCI-H23 lung)
18.7 µM: TGI (A498 renal)
6.71 µM: TGI (UACC-257 melanoma)
17.5 µM: TGI (OVCAR-5 ovarian)
3.14 µM: TGI (SK-MEL-5 melanoma)
> 100 µM: TGI (CCRF-CEM leukemia) | TGI (K-562 leukemia) | TGI (MOLT-4 leukemia) | TGI (NCI/ADR-RES ovarian) | TGI (RPMI-8226 leukemia) | TGI (SR leukemia)

CN1CCC2(CC1)ONC1=NCCN12
inactive: GI50 (786-0 renal) 15.4 µM | GI50 (A498 renal) 41.4 µM | GI50 (ACHN renal) 23.7 µM | GI50 (BT-549 breast) 53.1 µM | GI50 (CAKI-1 renal) 30.6 µM | GI50 (CCRF-CEM leukemia) 13.4 µM | GI50 (COLO 205 colon) 31.1 µM | GI50 (DU-145 prostate) 51.3 µM | GI50 (EKVX NSCLC) 92.5 µM | GI50 (HCC-2998 colon) 15.8 µM | GI50 (HCT-116 colon) 32.4 µM | GI50 (HCT-15 colon) 24.1 µM | GI50 (HOP-62 NSCLC) 52.9 µM | GI50 (HT29 colon) 53.7 µM | GI50 (K-562 leukemia) 37.7 µM | GI50 (KM12 colon) 26.6 µM | GI50 (M14 melanoma) 47.9 µM | GI50 (MALME-3M melanoma) 20.1 µM | GI50 (MCF7 breast) 23 µM | GI50 (MDA-MB-231 breast) 46 µM | GI50 (MDA-MB-435) 80.6 µM | GI50 (MOLT-4 leukemia) 23.6 µM | GI50 (NCI-H226 lung) 21.8 µM | GI50 (NCI-H23 lung) 34.5 µM | GI50 (NCI-H460 lung) 37.2 µM | GI50 (NCI-H522 lung) 29.3 µM | GI50 (NCI/ADR-RES ovarian) 19.6 µM | GI50 (OVCAR-4 ovarian) > 100 µM | GI50 (PC-3 prostate) 26 µM | GI50 (SF-268 CNS) 37.2 µM | GI50 (SF-295 CNS) 44.5 µM | GI50 (SF-539 CNS) 47.5 µM | GI50 (SK-MEL-2 melanoma) > 100 µM | GI50 (SK-MEL-28 melanoma) > 100 µM | GI50 (SK-MEL-5 melanoma) 59.8 µM | GI50 (SK-OV-3 ovarian) 42 µM | GI50 (SN12C renal) 15.8 µM | GI50 (SNB-19 CNS) > 100 µM | GI50 (SNB-75 CNS) 66.8 µM | GI50 (SW-620 colon) 51.8 µM | GI50 (T-47D breast) 99.8 µM | GI50 (U251 CNS) 29.4 µM | GI50 (UACC-257 melanoma) > 100 µM | GI50 (UACC-62 melanoma) 31.2 µM | GI50 (UO-31 renal) 45.3 µM
63.5 µM: TGI (NCI-H226 lung)
90 µM: TGI (CAKI-1 renal)
53.8 µM: TGI (786-0 renal)
87.1 µM: TGI (MCF7 breast)
43.8 µM: TGI (HCC-2998 colon)
66.5 µM: TGI (PC-3 prostate)
42.3 µM: TGI (CCRF-CEM leukemia)
> 100 µM: TGI (A498 renal) | TGI (BT-549 breast) | TGI (COLO 205 colon) | TGI (DU-145 prostate) | TGI (EKVX NSCLC) | TGI (HCT-116 colon) | TGI (HCT-15 colon) | TGI (HOP-62 NSCLC) | TGI (HT29 colon) | TGI (K-562 leukemia) | TGI (KM12 colon) | TGI (M14 melanoma) | TGI (MDA-MB-231 breast) | TGI (MDA-MB-435) | TGI (MOLT-4 leukemia) | TGI (NCI-H23 lung) | TGI (NCI-H460 lung) | TGI (NCI-H522 lung) | TGI (OVCAR-4 ovarian) | TGI (SF-268 CNS) | TGI (SF-295 CNS) | TGI (SF-539 CNS) | TGI (SK-MEL-2 melanoma) | TGI (SK-MEL-28 melanoma) | TGI (SK-MEL-5 melanoma) | TGI (SK-OV-3 ovarian) | TGI (SNB-19 CNS) | TGI (SNB-75 CNS) | TGI (SW-620 colon) | TGI (T-47D breast) | TGI (U251 CNS) | TGI (UACC-257 melanoma) | TGI (UACC-62 melanoma) | TGI (UO-31 renal)
12.9 µM: TGI (OVCAR-8 ovarian)
40.2 µM: TGI (SN12C renal)
70.3 µM: TGI (NCI/ADR-RES ovarian)
74.5 µM: TGI (ACHN renal)
73.7 µM: TGI (MALME-3M melanoma)
